PubChem BioAssay (NCI)
Where “and” joins values, the source holds several entries; their conditions need not be identical. Identical values can stand only once.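 Protocol summary: plate cells (96-well), add compound at 5 concentrations, incubate 48 h, interpolate endpoints linearly. At the GI50, growth is halved. TGI denotes the concentration required for complete inhibition of growth.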 *1 amine or outer side, *2 acyl side, *3 side chain or, on linkers, in order; H or OH if unused. Where a SMILES comes first, the peptide text is derived from it. Bridges are numbered along the chain shown (N, C = ends). Roman numbers before positions name the chains, in order. [ ]: non-standard residue; d: D form. Actinocin(9to1) = Cc1c2oc3c(C)ccc(C(=O)[*:1])c3nc-2c(C(=O)[*:2])c(N)c1=O; NMeT = CN[CH](C(=O)O)[CH](C)O; Sar = CNCC(=O)O

Columns and labels:
Assay in all cases: NCI-60 cell line screen, 48 h
ACHN renal = test system: ACHN renal
TK-10 renal = test system: TK-10 renal
NCI-H226 lung = test system: NCI-H226 lung
IGROV1 ovarian = test system: IGROV1 ovarian
RPMI-8226 leukemia = test system: RPMI-8226 leukemia
HT29 colon = test system: HT29 colon
DU-145 prostate = test system: DU-145 prostate
SK-OV-3 ovarian = test system: SK-OV-3 ovarian
A549 NSCLC = test system: A549 NSCLC
786-0 renal = test system: 786-0 renal

| Compound | GI50 (ACHN renal) [µM] | TGI (ACHN renal) [µM] | GI50 (TK-10 renal) | TGI (TK-10 renal) [µM] | GI50 (NCI-H226 lung) | GI50 (IGROV1 ovarian) [µM] | TGI (IGROV1 ovarian) [µM] | GI50 (RPMI-8226 leukemia) [µM] | TGI (RPMI-8226 leukemia) | GI50 (HT29 colon) | TGI (HT29 colon) [µM] | GI50 (DU-145 prostate) | TGI (DU-145 prostate) [µM] | GI50 (SK-OV-3 ovarian) | TGI (SK-OV-3 ovarian) [µM] | GI50 (A549 NSCLC) | TGI (A549 NSCLC) [µM] | GI50 (786-0 renal) | TGI (786-0 renal) [µM] | TGI (NCI-H226 lung) |
| --- | --- | --- | --- | --- | --- | --- | --- | --- | --- | --- | --- | --- | --- | --- | --- | --- | --- | --- | --- | --- |
| Cc1ccc(Cc2cnc(NC(=O)/C=C/c3cccc(C)c3)s2)cc1 | 0.278 | 4.66 | 0.919 µM | 6.81 | 0.608 µM | 0.334 | 15.5 | 0.175 | 10.5 µM | 0.135 µM | 5.85 | 0.395 µM | > 66.3 | 0.85 µM | > 59.7 | 0.29 µM | > 67.7 | 0.389 µM | 4.04 |  |
| C=C(C)[C@@H]1CC[C@]2(C(=O)O)CC[C@]3(C)[C@H](CC[C@@H]4[C@@]5(C)CCC(NC(=O)c6cccc(OC(C)=O)c6OC(C)=O)C(C)(C)[C@@H]5CC[C@]43C)[C@@H]12 (some centres undefined) | 0.323 | 2.61 | 0.656 µM | > 100 | 1.69 µM | 0.604 | 5.34 | 0.697 | 4.44 µM | 0.806 µM | 3.14 | 0.882 µM | > 100 | 1.89 µM | > 20.4 | 0.409 µM | 2.47 | 0.661 µM | 3.47 | 4.59 µM |
| Cc1nc2sc(C(=O)Nc3cccc4ccccc34)c(N)c2cc1C(O)c1ccccc1 (centres undefined) | 0.0726 | 19.2 | 1.57 µM | > 91.5 | 1.19 µM | 0.0651 | 12.4 | 0.0595 | 5.74 µM | 0.038 µM | 14.1 | 0.0804 µM | 6.67 | 0.0702 µM | 67.4 | 0.0916 µM | > 100 | 0.123 µM | 9.69 | 28.4 µM |
| C=C1C(=O)O[C@H]2[C@H]1CC/C(COC(=O)c1cc3ccccc3o1)=C\CC[C@@]1(C)O[C@@H]21 | 1.44 | 2.76 | 3.01 µM | 9.45 | 1.74 µM | 1.39 | 3.23 | 0.715 | 3.44 µM | 0.829 µM | 2.21 | 1.18 µM | 2.45 | 16.7 µM | 32.7 | 2.91 µM | 12 | 1.81 µM | 3.45 | 3.6 µM |
| C=C1C(C2(C)C(OC(C)=O)CC(=O)OC(C)(COC(C)=O)C2CC(=O)OC)C(OC=O)C(OC(=O)C(O)C(C)CC)C2(C)C(c3ccoc3)CC(=O)C12O (centres undefined) |  | > 52.8 |  | > 100 |  |  | > 100 |  | > 100 µM |  | > 100 |  | > 100 |  | > 100 |  | > 100 |  | > 100 | > 100 µM |
| COc1ccc(/C(COc2ccc3c(=O)c(-c4ccccc4)coc3c2)=N\O)cc1 | 11.3 | 34 | 0.988 µM | 9.22 | 15.2 µM | 7.37 | 38.3 | 2.29 | > 54.2 µM | 2.89 µM | > 44.5 | 4.09 µM | 33.4 | 10.1 µM | 29.5 | 14.8 µM | > 83.6 | 16.9 µM | 38.5 | 89 µM |
| CNC/C(Cl)=N/S(=O)(=O)c1ccc(C)cc1 |  | 35.8 |  | 28.6 |  |  | 91.2 |  | 33.5 µM |  | 60.4 |  | 18.1 |  | 56.6 |  | 51.4 |  | 25.2 | 59.5 µM |
| COc1cc2ncn(-c3cc(O[C@@H](C)c4ccccc4Cl)c(C(N)=O)s3)c2cc1OC | 2.89 | > 25 | 4.14 µM | > 23.1 | 2.3 µM | 3.69 | > 25 | 1.49 | > 19 µM | 0.107 µM | > 25 | 0.727 µM | > 25 | 0.803 µM | > 25 | 1.45 µM | > 25 | 4.43 µM | > 25 | > 19.4 µM |
| O=C(O)CCCSc1ccccc1 |  | > 100 |  | > 100 |  |  | > 100 |  | > 100 µM |  | > 100 |  | > 100 |  | > 100 |  | > 100 |  | > 100 | > 100 µM |
| COc1cccc(/C=C/[N+](=O)[O-])c1 | 2.49 | 6.06 |  |  | 26.2 µM | 2.4 | 6.51 | 1.78 | 4.54 µM | 1.92 µM | 4.48 | 2.26 µM | 5.64 | 11.5 µM | 23.6 | 5.06 µM | 25.4 | 1.9 µM | 4.06 | 65.3 µM |
| Cc1c2oc3c(C)ccc(C(=O)NC4C(=O)NC(C(C)C)C(=O)N5CCCC5C(=O)N(C)CC(=O)N(C)C(C(C)O)C(=O)OC4C)c3nc-2c(C(=O)NC2C(=O)NC(C(C)C)C(=O)N3CCCC3C(=O)N(C)CC(=O)N(C)C(C(C)O)C(=O)OC2C)c(N)c1=O (centres undefined) (I: TVP[Sar][NMeT] / II: TVP[Sar][NMeT]; ester I:1-I:C, II:1-II:C; linker I:N-II:N via Actinocin(9to1); configuration not given here) |  | > 26.6 | 4.2 µM and > 1 µM | > 28.8 | 1.47 µM and 0.618 µM |  | > 41.7 |  | 10.6 µM and > 1 µM | 3.17 µM and 0.724 µM | > 100 | 5.98 µM and > 1 µM | > 100 | 5.75 µM and > 1 µM | > 100 | 2.86 µM and > 1 µM | > 100 | 1.25 µM and 0.61 µM | > 100 | 26.8 µM and > 1 µM |
| NC[C@H]1Nc2ccccc2[C@@H](O)C1O (some centres undefined) |  | > 100 |  | > 100 |  |  | > 100 |  | > 100 µM |  | > 100 |  | > 100 |  | > 100 |  | > 100 |  | > 100 | > 100 µM |
| C[C@@H](O)[C@H](NC(=O)N[C@@H](CC(N)=O)c1nc([C@@H](N)CO)no1)C(=O)O | > 100 | > 100 | > 100 µM | > 100 | > 100 µM | > 100 | > 100 | > 100 | > 100 µM | > 100 µM | > 100 | > 100 µM | > 100 | > 100 µM | > 100 | > 100 µM | > 100 | > 100 µM | > 100 | > 100 µM |
| CS(=O)(=O)CCNCc1ccc(-c2ccc3ncnc(Nc4ccc(OCc5ccccc5)c(Br)c4)c3c2)o1 | 1.13 | > 25 | 2.02 µM | > 22 | 10.1 µM | 4.94 | > 25 | 8.67 | > 24.1 µM | 4.72 µM | 10.1 | 12.6 µM | > 25 | 0.115 µM | > 25 | 8.81 µM | > 25 | 4.69 µM | 10.2 | > 25 µM |
